Measurements taken from PubChem BioAssay (NCI).
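Following 48 hours of exposure in 96-well plates, responses at five concentrations were used to interpolate endpoints linearly. GI50 marks 50% less growth. TGI is the concentration that stops growth completely.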

Assays:
Experiment in all cases: inhibition of tumour cell growth, NCI panel, 48 h
A498 renal = tested on: A498 renal
HOP-92 NSCLC = tested on: HOP-92 NSCLC
HT29 colon = tested on: HT29 colon
MOLT-4 leukemia = tested on: MOLT-4 leukemia
NCI-H522 lung = tested on: NCI-H522 lung
NCI/ADR-RES ovarian = tested on: NCI/ADR-RES ovarian
OVCAR-3 ovarian = tested on: OVCAR-3 ovarian
RPMI-8226 leukemia = tested on: RPMI-8226 leukemia
SNB-19 CNS = tested on: SNB-19 CNS
SNB-75 CNS = tested on: SNB-75 CNS

Row | Compound | GI50 (A498 renal) | TGI (A498 renal) | GI50 (HOP-92 NSCLC) | TGI (HOP-92 NSCLC) | GI50 (HT29 colon) | TGI (HT29 colon) | GI50 (MOLT-4 leukemia) | TGI (MOLT-4 leukemia) | GI50 (NCI-H522 lung) | TGI (NCI-H522 lung) | GI50 (NCI/ADR-RES ovarian) | TGI (NCI/ADR-RES ovarian) | GI50 (OVCAR-3 ovarian) | TGI (OVCAR-3 ovarian) | GI50 (RPMI-8226 leukemia) | TGI (RPMI-8226 leukemia) | GI50 (SNB-19 CNS) | TGI (SNB-19 CNS) | GI50 (SNB-75 CNS) | TGI (SNB-75 CNS)
1 | Fc1ccc(/C=N/n2c(-c3ccc(F)c(Cl)c3)n[nH]c2=S)cc1 | 13.8 µM | 31 µM | 15.1 µM | 34.6 µM | 35.3 µM | > 100 µM | 25.4 µM | 94.6 µM | 23.3 µM | 52.2 µM | 23.4 µM | 59.4 µM | 18.3 µM | 37.3 µM | 19.8 µM | 43.2 µM | 22.5 µM | 44.1 µM | 15.3 µM | 30.1 µM
2 | c1cc(N2CCN(c3ccc(C4=NCCCN4)cc3)CC2)ccc1C1=NCCCN1 | 29.2 µM | > 100 µM | 73 µM | > 100 µM | > 53.2 µM | > 100 µM | 19.4 µM | > 100 µM | > 55.9 µM | > 100 µM | > 100 µM | > 100 µM | > 32.2 µM | > 100 µM | 23.8 µM | > 100 µM | > 71.2 µM | > 100 µM | > 89.4 µM | > 100 µM
3 | COc1ccc(/C=C(\C)[N+](=O)[O-])cc1OC | 4.51 µM | 18.5 µM | 2.01 µM | 3.71 µM | 2.2 µM | 4.43 µM | 3.86 µM | 9.52 µM | 1.34 µM | 2.94 µM | 3.55 µM | 13.4 µM | 1.87 µM | 3.29 µM | 2.3 µM | 5.59 µM | 11.3 µM | 23.6 µM | 2.2 µM | 12.2 µM
4 | C/C(=N\O)c1cccc(Nc2cc(-n3ccnc3)c3ccccc3n2)c1 | 21.6 µM | 39.1 µM | 30.2 µM | 92.1 µM | 14.7 µM | 49.4 µM | 12.6 µM | 37.5 µM | 14.3 µM | 30.7 µM | 17.2 µM | 59.2 µM | 14.7 µM | 39.6 µM | 21.2 µM | > 100 µM | 17.5 µM | 43.6 µM | 11.4 µM | 26.8 µM
5 | Cc1cc(C)c(C2CNCc3cc4c(cc32)CNCC4c2c(C)cc(C)cc2C)c(C)c1 (stereo not given) | 2.06 µg/mL | 4.48 µg/mL | 11.8 µg/mL | 24.9 µg/mL | 2.75 µg/mL | 8.35 µg/mL | 2.95 µg/mL | 8.55 µg/mL | 3.23 µg/mL | 9.18 µg/mL | 6.38 µg/mL | 19.5 µg/mL | 1.91 µg/mL | 4.27 µg/mL | 2.25 µg/mL | 6.92 µg/mL | 3.46 µg/mL | 11 µg/mL | 0.526 µg/mL | 1.92 µg/mL
6 | C[C@@H]1Cc2cc(O)ccc2[C@H]2CC[C@]3(C)/C(=C/COCCN(C)C)CC[C@H]3[C@H]12 (tested in a mixture with another compound) | 0.534 µM | 1.59 µM | 0.216 µM | 0.872 µM | 0.368 µM | 1.2 µM | 0.0833 µM | 0.487 µM | 0.131 µM | 0.735 µM | 0.192 µM | 0.419 µM | 0.18 µM | 0.344 µM | 0.239 µM | 0.694 µM | 0.364 µM | 1.34 µM | 0.235 µM | 0.755 µM
7 | Oc1c(-c2cc(C(F)(F)F)[nH]n2)cc(Cl)c(OCc2ccc(Cl)cc2)c1-c1ccc(Cl)c(C(F)(F)F)c1 | 0.0996 µM | 0.484 µM | 0.111 µM | 0.542 µM | 1.4 µM | 5.83 µM | 0.903 µM | 3.2 µM | 0.167 µM | 1.72 µM | 0.221 µM | 5.82 µM | 0.315 µM | 5.5 µM | 0.204 µM | 1.19 µM | 0.565 µM | 6.62 µM | 0.496 µM | 1.74 µM
8 | Cc1ccncc1C(N)=O | > 100 µM | > 100 µM | > 100 µM | > 100 µM | > 100 µM | > 100 µM | > 100 µM | > 100 µM | > 100 µM | > 100 µM | > 100 µM | > 100 µM | > 100 µM | > 100 µM | > 100 µM | > 100 µM | > 100 µM | > 100 µM | > 100 µM | > 100 µM
9 | COc1ccc2c(-c3ccnc(Nc4cccc(OC(F)(F)F)c4)n3)cnn2n1 | 0.999 µM | 10.6 µM | 0.801 µM | 7.11 µM | 0.912 µM | 3.06 µM | 2.23 µM | > 25 µM | 0.366 µM | 1.77 µM | 0.73 µM | 6.74 µM | 0.661 µM | 1.68 µM | 1.77 µM | > 21 µM | 1.67 µM | > 23.2 µM | 0.806 µM | 4.88 µM
10 | CCN1C(=O)N(CC)C2C1NN=c1s/c(=C\c3ccc(F)cc3)c(=O)n12 (stereo not given) | 0.0394 µM | 0.33 µM | 7.43 µM | > 100 µM | 0.0614 µM | > 100 µM | 0.418 µM | > 100 µM | 0.0931 µM | 0.903 µM | 0.168 µM | > 100 µM | 0.0924 µM | 0.664 µM | 0.326 µM | > 63.2 µM | 0.374 µM | > 100 µM | 0.0474 µM | 0.611 µM
11 | CC1c2ccccc2CCN1c1ccc(CO)c(Cl)c1 (stereo not given) | 0.0149 µM | 0.0888 µM | 0.19 µM | 16.6 µM | 0.383 µM | 25.2 µM | 24.6 µM | 77.7 µM | 17.4 µM | 50.5 µM | 13.1 µM | 50.5 µM | 0.171 µM | 3.36 µM | 1.94 µM | 47.5 µM | 34.5 µM | > 100 µM | 20 µM | 75 µM
